Test results reported in patent US11739098B2 (BRISTOL-MYERS SQUIBB COMPANY, priority 2017, dated 2023).
pIC50: −log10 of the molar value.

Columns and labels:
Format in all cases: cell-based
human TLR7 = target: T1, human TLR7 (Homo sapiens, UniProt Q9NYK1); test: TLR7 inhibition reporter assay (HEK-Blue cells, SEAP reporter, gardiquimod stimulation); conditions: HEK-Blue cells overexpressing human TLR7, SEAP reporter, gardiquimod 7.5 μM
T1 construct: host or cells: HEK-Blue cells (HEK293-derived reporter line)
T1 sequence (Q9NYK1 27-1049): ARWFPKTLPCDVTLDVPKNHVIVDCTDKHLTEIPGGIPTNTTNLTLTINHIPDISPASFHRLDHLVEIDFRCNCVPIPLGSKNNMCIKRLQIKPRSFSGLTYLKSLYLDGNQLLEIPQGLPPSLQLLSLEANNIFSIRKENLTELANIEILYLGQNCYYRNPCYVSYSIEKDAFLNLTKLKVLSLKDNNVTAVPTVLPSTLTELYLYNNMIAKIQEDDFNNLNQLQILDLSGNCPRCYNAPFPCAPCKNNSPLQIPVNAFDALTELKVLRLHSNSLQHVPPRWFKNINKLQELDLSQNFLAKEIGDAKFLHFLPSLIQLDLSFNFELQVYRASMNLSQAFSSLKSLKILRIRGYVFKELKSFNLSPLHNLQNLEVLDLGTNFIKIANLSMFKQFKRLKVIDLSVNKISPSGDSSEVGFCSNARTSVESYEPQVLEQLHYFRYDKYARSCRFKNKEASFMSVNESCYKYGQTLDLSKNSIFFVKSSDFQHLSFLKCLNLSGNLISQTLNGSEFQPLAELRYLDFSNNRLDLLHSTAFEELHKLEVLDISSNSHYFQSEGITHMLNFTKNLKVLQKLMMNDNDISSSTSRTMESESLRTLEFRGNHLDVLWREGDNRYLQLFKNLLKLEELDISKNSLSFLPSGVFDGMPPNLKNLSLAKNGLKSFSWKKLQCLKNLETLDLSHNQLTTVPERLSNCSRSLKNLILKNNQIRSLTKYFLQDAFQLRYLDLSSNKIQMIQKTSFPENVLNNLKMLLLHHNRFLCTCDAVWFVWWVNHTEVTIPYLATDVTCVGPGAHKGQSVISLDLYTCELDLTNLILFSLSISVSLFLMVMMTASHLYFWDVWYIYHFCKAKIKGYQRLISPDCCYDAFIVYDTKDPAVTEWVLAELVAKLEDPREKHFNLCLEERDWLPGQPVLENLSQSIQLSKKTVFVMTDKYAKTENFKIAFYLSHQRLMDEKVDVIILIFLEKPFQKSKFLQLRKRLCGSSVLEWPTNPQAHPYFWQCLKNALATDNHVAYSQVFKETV
Procedure, shortened: (§1)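 Agonists (final): TLR7 gardiquimod 7.5 μM; TLR8 R848 15.9 μM; TLR9 ODN2006 5 nM. HEK-Blue reporter cells, 30 min RT compound pre-incubation, 0.05 nM–50 μM dose range, 22 h at 37 °C, colorimetric SEAP detection medium. % inhibition relative to agonist+DMSO and known-inhibitor wells.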

human TLR8 = target: T2, human TLR8 (Homo sapiens, UniProt Q9NR97); test: TLR8 inhibition reporter assay (HEK-Blue cells, SEAP reporter, R848 stimulation); conditions: HEK-Blue cells overexpressing human TLR8, SEAP reporter, R848 15.9 μM
T2 construct: host or cells: HEK-Blue cells (HEK293-derived reporter line)
T2 sequence (Q9NR97 27-1041): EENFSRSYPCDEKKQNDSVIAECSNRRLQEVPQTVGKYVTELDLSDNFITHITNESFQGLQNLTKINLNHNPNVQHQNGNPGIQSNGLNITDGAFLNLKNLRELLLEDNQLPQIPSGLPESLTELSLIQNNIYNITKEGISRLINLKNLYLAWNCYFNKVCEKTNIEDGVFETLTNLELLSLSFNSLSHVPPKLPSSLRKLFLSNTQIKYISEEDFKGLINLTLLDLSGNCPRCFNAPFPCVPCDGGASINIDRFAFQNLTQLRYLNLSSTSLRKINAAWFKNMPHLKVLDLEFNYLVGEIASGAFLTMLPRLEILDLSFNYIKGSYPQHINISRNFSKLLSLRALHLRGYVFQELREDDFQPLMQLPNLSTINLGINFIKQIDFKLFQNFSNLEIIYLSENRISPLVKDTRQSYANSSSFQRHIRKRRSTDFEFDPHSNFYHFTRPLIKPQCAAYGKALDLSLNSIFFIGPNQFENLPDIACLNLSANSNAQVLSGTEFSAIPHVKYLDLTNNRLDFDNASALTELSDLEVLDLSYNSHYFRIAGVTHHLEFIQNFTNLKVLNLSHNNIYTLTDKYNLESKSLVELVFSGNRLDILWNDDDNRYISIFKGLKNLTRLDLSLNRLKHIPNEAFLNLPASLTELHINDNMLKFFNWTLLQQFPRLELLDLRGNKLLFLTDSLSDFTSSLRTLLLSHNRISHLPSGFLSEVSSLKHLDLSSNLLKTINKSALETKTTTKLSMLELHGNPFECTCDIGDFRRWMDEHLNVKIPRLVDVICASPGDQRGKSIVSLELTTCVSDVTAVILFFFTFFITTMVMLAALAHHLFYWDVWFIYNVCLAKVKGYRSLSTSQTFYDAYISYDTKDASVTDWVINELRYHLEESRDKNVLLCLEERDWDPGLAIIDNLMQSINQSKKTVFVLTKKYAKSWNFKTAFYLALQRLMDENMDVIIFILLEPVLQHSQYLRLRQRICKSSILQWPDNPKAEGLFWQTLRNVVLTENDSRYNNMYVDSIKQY
Procedure, shortened: as §1

human TLR9 = target: T3, human TLR9 (Homo sapiens, UniProt Q9NR96); test: TLR9 inhibition reporter assay (HEK-Blue cells, SEAP reporter, ODN2006 stimulation); conditions: HEK-Blue cells overexpressing human TLR9, SEAP reporter, ODN2006 5 nM
T3 construct: host or cells: HEK-Blue cells (HEK293-derived reporter line)
T3 sequence (Q9NR96 26-1032): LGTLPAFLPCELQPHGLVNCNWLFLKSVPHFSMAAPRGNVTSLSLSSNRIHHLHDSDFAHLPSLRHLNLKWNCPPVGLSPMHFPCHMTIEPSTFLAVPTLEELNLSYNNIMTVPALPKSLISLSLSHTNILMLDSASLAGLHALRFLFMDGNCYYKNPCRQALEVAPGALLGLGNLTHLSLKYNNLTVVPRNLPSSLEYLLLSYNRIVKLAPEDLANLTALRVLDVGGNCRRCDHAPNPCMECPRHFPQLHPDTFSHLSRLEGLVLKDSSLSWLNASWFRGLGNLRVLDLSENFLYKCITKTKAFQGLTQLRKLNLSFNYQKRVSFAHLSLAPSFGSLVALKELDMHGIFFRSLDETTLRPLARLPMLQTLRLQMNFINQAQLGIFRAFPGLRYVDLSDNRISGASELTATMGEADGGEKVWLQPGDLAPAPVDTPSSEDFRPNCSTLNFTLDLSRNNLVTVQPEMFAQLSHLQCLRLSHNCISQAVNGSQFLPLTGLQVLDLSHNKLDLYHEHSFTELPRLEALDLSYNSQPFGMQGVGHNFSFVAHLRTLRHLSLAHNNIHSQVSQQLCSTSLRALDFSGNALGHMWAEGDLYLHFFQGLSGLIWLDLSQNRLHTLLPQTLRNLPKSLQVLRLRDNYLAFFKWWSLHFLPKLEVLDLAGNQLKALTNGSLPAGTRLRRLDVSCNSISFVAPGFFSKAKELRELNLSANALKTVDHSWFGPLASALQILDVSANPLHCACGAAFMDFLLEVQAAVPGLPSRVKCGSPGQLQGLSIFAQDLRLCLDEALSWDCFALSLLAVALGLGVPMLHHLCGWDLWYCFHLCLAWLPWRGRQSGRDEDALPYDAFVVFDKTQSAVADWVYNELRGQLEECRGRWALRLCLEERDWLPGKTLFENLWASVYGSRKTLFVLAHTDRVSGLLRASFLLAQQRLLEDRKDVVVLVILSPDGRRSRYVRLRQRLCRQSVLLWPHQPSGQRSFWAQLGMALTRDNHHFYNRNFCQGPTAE
Procedure, shortened: as §1

pIC50 (human TLR7) | pIC50 (human TLR8) | pIC50 (human TLR9) | SMILES
> 7.00 | 6.00 to 7.00 | 4.30 to 6.00 | CNC(=O)CN1CCC(c2ccc3[nH]c(-c4cc(C)c5oc(C)nc5c4)c(C(C)C)c3c2)CC1 [Example 339, 2-(4-(2-(2,7-dimethylbenzo[d]oxazol-5-yl)-3-isopropyl-1H-indol-5-yl)piperidin-1-yl)-N-methylacetamide]
> 7.00 | > 7.00 | 4.30 to 6.00 | Cc1c(-c2[nH]c3ccc(C4CCNCC4)cc3c2C(C)C)c2cccnc2n1C [Example 37, 3-(3-isopropyl-5-(piperidin-4-yl)-1H-indol-2-yl)-1,2-dimethyl-1H-pyrrolo[2,3-b]pyridine]
> 7.00 | > 7.00 | 4.30 to 6.00 | CC(C)c1c(-c2cnc3[nH]ncc3c2)[nH]c2ccc(C3CCN(C(=O)CN(C)C)CC3)cc12 [Example 562, 2-(dimethylamino)-1-(4-(3-isopropyl-2-(1H-pyrazolo[3,4-b]pyridin-5-yl)-1H-indol-5-yl)piperidin-1-yl)ethan-1-one]
> 7.00 | > 7.00 | 6.00 to 7.00 | CC(C)c1c(-c2ccnc3[nH]ncc23)[nH]c2ccc(C3CCN(C4C[C@H]5CC[C@@H](C4)N5C)CC3)cc12 (stereo partly drawn) [Example 829, 4-(3-isopropyl-5-(1-((1R,5S)-8-methyl-8-azabicyclo[3.2.1]octan-3-yl)piperidin-4-yl)-1H-indol-2-yl)-1H-pyrazolo[3,4-b]pyridine]
> 7.00 | > 7.00 | 4.30 to 6.00 | CC(C)c1c(-c2cn(C)c3ncccc23)[nH]c2ccc(C3CCN(C(=O)CN(C)C)CC3)cc12 [Example 463, 2-(dimethylamino)-1-(4-(3-isopropyl-2-(1-methyl-1H-pyrrolo[2,3-b]pyridin-3-yl)-1H-indol-5-yl)piperidin-1-yl)ethan-1-one]
> 7.00 | > 7.00 | 4.30 to 6.00 | CCOc1cc(-c2[nH]c3ccc(C4CCN(CC(=O)N(C)C)CC4)cc3c2C(C)C)cc2nc(C)nn12 [Example 404, 2-(4-(2-(5-ethoxy-2-methyl-[1,2,4]triazolo[1,5-a]pyridin-7-yl)-3-isopropyl-1H-indol-5-yl)piperidin-1-yl)-N,N-dimethylacetamide]
> 7.00 | 6.00 to 7.00 | 6.00 to 7.00 | CC(C)c1c(-c2ccc3oc(=O)[nH]c3c2)[nH]c2ccc(C3CCNCC3)cc12 [Example 11, 5-(3-isopropyl-5-(piperidin-4-yl)-1H-indol-2-yl)benzo[d]oxazol-2(3H)-one]
> 7.00 | > 7.00 | 4.30 to 6.00 | Cc1cc(-c2[nH]c3ccc(C4CCNCC4)cc3c2C(C)C)cn2cc(C(=O)NCCO)nc12 [Example 267, N-(2-hydroxyethyl)-6-(3-isopropyl-5-(piperidin-4-yl)-1H-indol-2-yl)-8-methylimidazo[1,2-a]pyridine-2-carboxamide]
< 4.30 | 4.30 to 6.00 | 4.30 to 6.00 | COC(=O)c1c(-c2ccnc3[nH]ncc23)[nH]c2ccc(C3CCNCC3)cc12 [Example 174, methyl 5-(piperidin-4-yl)-2-(1H-pyrazolo[3,4-b]pyridin-4-yl)-1H-indole-3-carboxylate]
> 7.00 | 6.00 to 7.00 | > 7.00 | Cc1cn2cc(-c3[nH]c4ccc(C5CCN(Cc6c[nH]c(C)n6)CC5)cc4c3C(C)C)ccc2n1 [Example 937, 6-(3-isopropyl-5-(1-((2-methyl-1H-imidazol-4-yl)methyl)piperidin-4-yl)-1H-indol-2-yl)-2-methylimidazo[1,2-a]pyridine]
6.00 to 7.00 | 6.00 to 7.00 | 6.00 to 7.00 | CCc1c(-c2ccc3nncn3n2)[nH]c2ccc(C3CCNCC3)cc12 [Example 184, 6-(3-ethyl-5-(piperidin-4-yl)-1H-indol-2-yl)-[1,2,4] triazolo[4,3-b]pyridazine]
> 7.00 | 6.00 to 7.00 | < 4.30 | CC(C)c1c(-c2ccc3nccn3c2)[nH]c2ccc(C3CCN(C(=O)C4CC(=O)N(C)C4)CC3)cc12 (stereo not drawn) [Example 645, 4-(4-(2-(imidazo[1,2-a]pyridin-6-yl)-3-isopropyl-1H-indol-5-yl)piperidine-1-carbonyl)-1-methylpyrrolidin-2-one]
> 7.00 | 6.00 to 7.00 | 4.30 to 6.00 | CNC(=O)CN1CCC(c2ccc3[nH]c(-c4ccn5nncc5c4)c(C(C)C)c3c2)CC1 [Example 303, 2-(4-(2-([1,2,3]triazolo[1,5-a]pyridin-5-yl)-3-isopropyl-1H-indol-5-yl)piperidin-1-yl)-N-methylacetamide]

SMILES | pIC50 (human TLR7) | pIC50 (human TLR8) | pIC50 (human TLR9)
CCN(CC)C(=O)C1CCCN(CC(=O)N2CCC(c3ccc4[nH]c(-c5ccnc6[nH]ccc56)c(C(C)C)c4c3)CC2)C1 (stereo not drawn) [Example 569, N,N-diethyl-1-(2-(4-(3-isopropyl-2-(1H-pyrrolo[2,3-b]pyridin-4-yl)-1H-indol-5-yl)piperidin-1-yl)-2-oxoethyl)piperidine-3-carboxamide] | > 7.00 | > 7.00 | 6.00 to 7.00
